Assay results reported in publication PMC9866191, “Novel 9-Benzylaminoacridine Derivatives as Dual Inhibitors of Phosphodiesterase 5 and Topoisomerase II for the Treatment of Colon Cancer” (Molecules, 2023).

Legend:
IGROV1 = assay: NCI-60 one-dose screen; assay type: cell-based; conditions: Homo sapiens, IGROV-1; IGROV1, Ovarian Cancer panel; single dose 10^−5 M; read-out: Growth inhibition %
[1] = test system: panel of 60 human tumor cell lines; assay: NCI 60-cell line one-dose screen (mean); assay type: cell-based; conditions: mean of the 60 cell lines, single dose 10^−5 M, read-out: Mean % Growth Inhibition
Description: The newly synthesized compounds were screened for their in vitro anticancer activity at the Developmental Therapeutic Program (DTP) of the National Cancer Institute (NCI). The screening involved a panel of 60 human tumor cell lines consisting of 9 tissue types to screen for potential anti-cancer agents. The primary screening of submitted compounds was performed by testing a single dose (10^−5 M) in the full NCI-60 panel. The detailed % inhibition by the tested compounds against the 60 cell lines is shown in Tables S1–S3 in the Supporting Information.

PDE5A = target: T1, PDE5A (Homo sapiens, UniProt O76074); assay: Phosphodiesterase 5 HTRF cGMP assay; assay type: biochemical; conditions: for IC50: means ± S.D. (n = 4), read-out: PDE5 IC50; for inhibition at 10 µM: read-out: PDE5 % Inhibition at 10 μM
T1 construct: purchased BPS Bioscience, San Diego, CA, USA
Description: All the synthesized acridine derivatives were tested for their in vitro ability to inhibit PDE5A at a screening dose of 10 µM.
The enzyme activities of phosphodiesterase 5 (PDE5) were measured using an HTRF cGMP assay kit (Cisbio, Codolet, France). […] Afterward, the HTRF reagent (cGMP-d2 and anti-cGMP-cryptate) was added for 1 h at 25 °C, and PDE activity was assayed on an HTRF reader (Tecan Infinite F200 Pro).

HCT-116 [2] = assay: MTT cell proliferation assay, HCT-116; conditions: for % Inhibition at 10 µM: 72 h MTT, means ± SD; for IC50: read-out: IC50 μM, 72 h MTT, means ± SD, three experiments
Description: In the MTT assay, 96-well culture plates were used. A total of 7 × 10^4 cells per well were seeded, and test materials were added to the cells at various concentrations [47, 48]. Human cancer and non-cancer cell lines were purchased commercially from the American Type Culture Collection (ATCC). After 72 h, the cytotoxicity of the compounds and paclitaxel (as a positive control group) was detected using the MTT method (thiazolyl blue tetrazolium bromide, Sigma-M2128). Absorbance values at 570 and 620 nm (OD = OD570–OD620) were measured using an ELISA reader (Anthos Labtec Instruments, Salzburg, Austria).

SF-268 = assay: NCI-60 one-dose screen; assay type: cell-based; conditions: Homo sapiens; SF-268, CNS Cancer panel; single dose 10^−5 M; read-out: Growth inhibition %
OVCAR-3 = assay: NCI-60 one-dose screen; assay type: cell-based; conditions: Homo sapiens; OVCAR-3, Ovarian Cancer panel; single dose 10^−5 M; read-out: Growth inhibition %
NCI-H322M = assay: NCI-60 one-dose screen; assay type: cell-based; conditions: Homo sapiens, Non-small cell lung panel, single dose 10^−5 M, read-out: Growth inhibition %
SN12C = assay: NCI-60 one-dose screen; assay type: cell-based; conditions: Homo sapiens, Renal Cancer panel, single dose 10^−5 M, read-out: Growth inhibition %
OVCAR-4 = assay: NCI-60 one-dose screen; assay type: cell-based; conditions: Homo sapiens; OVCAR-4, Ovarian Cancer panel; single dose 10^−5 M; read-out: Growth inhibition %
NCI-H522 = assay: NCI-60 one-dose screen; assay type: cell-based; conditions: Homo sapiens; NCI-H522, Non-small cell lung panel; single dose 10^−5 M; read-out: Growth inhibition %
786-0 = assay: NCI-60 one-dose screen; assay type: cell-based; conditions: Homo sapiens; 786-0, Renal Cancer panel; single dose 10^−5 M; read-out: Growth inhibition %
NCI/ADR-RES = assay: NCI-60 one-dose screen; assay type: cell-based; conditions: Homo sapiens, Ovarian Cancer panel, single dose 10^−5 M, read-out: Growth inhibition %
NCI-H460 = assay: NCI-60 one-dose screen; assay type: cell-based; conditions: Homo sapiens; NCI-H460, Non-small cell lung panel; single dose 10^−5 M; read-out: Growth inhibition %
HS 578T = assay: NCI-60 one-dose screen; assay type: cell-based; conditions: Homo sapiens, Breast Cancer panel, single dose 10^−5 M, read-out: Growth inhibition %
SNB-75 = assay: NCI-60 one-dose screen; assay type: cell-based; conditions: Homo sapiens; SNB-75, CNS Cancer panel; single dose 10^−5 M; read-out: Growth inhibition %
HCT-116 [3] = assay: NCI-60 one-dose screen; assay type: cell-based; conditions: Homo sapiens, read-out: Growth inhibition %
ACHN = assay: NCI-60 one-dose screen; assay type: cell-based; conditions: Homo sapiens, Renal Cancer panel, single dose 10^−5 M, read-out: Growth inhibition %
HL-60(TB) = assay: NCI-60 one-dose screen; assay type: cell-based; conditions: Homo sapiens, Leukemia panel, single dose 10^−5 M, read-out: Growth inhibition %
NCI-H23 = assay: NCI-60 one-dose screen; assay type: cell-based; conditions: Homo sapiens; NCI-H23, Non-small cell lung panel; single dose 10^−5 M; read-out: Growth inhibition %
MDA-MB-231/ATCC = assay: NCI-60 one-dose screen; assay type: cell-based; conditions: Homo sapiens, Breast Cancer panel, single dose 10^−5 M, read-out: Growth inhibition %
A549/ATCC = assay: NCI-60 one-dose screen; assay type: cell-based; conditions: Homo sapiens, Non-small cell lung panel, single dose 10^−5 M, read-out: Growth inhibition %
MDA-MB-435 = assay: NCI-60 one-dose screen; assay type: cell-based; conditions: Homo sapiens; MDA-MB-435, Melanoma panel; single dose 10^−5 M; read-out: Growth inhibition %
MCF7 = assay: NCI-60 one-dose screen; assay type: cell-based; conditions: Homo sapiens; MCF7, Breast Cancer panel; single dose 10^−5 M; read-out: Growth inhibition %
HOP-62 = assay: NCI-60 one-dose screen; assay type: cell-based; conditions: Homo sapiens; HOP-62, Non-small cell lung panel; single dose 10^−5 M; read-out: Growth inhibition %
MOLT-4 = assay: NCI-60 one-dose screen; assay type: cell-based; conditions: Homo sapiens; MOLT-4, Leukemia panel; single dose 10^−5 M; read-out: Growth inhibition %
UO-31 = assay: NCI-60 one-dose screen; assay type: cell-based; conditions: Homo sapiens; UO-31, Renal Cancer panel; single dose 10^−5 M; read-out: Growth inhibition %
CAKI-1 = assay: NCI-60 one-dose screen; assay type: cell-based; conditions: Homo sapiens; CAKI-1, Renal Cancer panel; single dose 10^−5 M; read-out: Growth inhibition %
SK-MEL-28 = assay: NCI-60 one-dose screen; assay type: cell-based; conditions: Homo sapiens; SK-MEL-28, Melanoma panel; single dose 10^−5 M; read-out: Growth inhibition %
MDA-MB-468 = assay: NCI-60 one-dose screen; assay type: cell-based; conditions: Homo sapiens; MDA-MB-468, Breast Cancer panel; single dose 10^−5 M; read-out: Growth inhibition %

SMILES	inhibition at 10 µM (IGROV1) [%]	inhibition at 10 µM [1] [%]	IC50 (PDE5A) [µM]	inhibition at 10 µM (PDE5A) [%]	inhibition at 10 µM (SF-268) [%]	inhibition at 10 µM (OVCAR-3) [%]	inhibition at 10 µM (NCI-H322M) [%]	inhibition at 10 µM (SN12C) [%]	inhibition at 10 µM (OVCAR-4) [%]	inhibition at 10 µM (NCI-H522) [%]	inhibition at 10 µM (786-0) [%]	inhibition at 10 µM (NCI/ADR-RES) [%]	inhibition at 10 µM (NCI-H460) [%]	inhibition at 10 µM (HS 578T) [%]	inhibition at 10 µM (SNB-75) [%]	inhibition at 10 µM (HCT-116 [3]) [%]	inhibition at 10 µM (ACHN) [%]	inhibition at 10 µM (HL-60(TB)) [%]	inhibition at 10 µM (NCI-H23) [%]	inhibition at 10 µM (MDA-MB-231/ATCC) [%]	further results
Clc1ccccc1CNc1c2ccccc2nc2ccccc12 [Compound 11, Acridin-9-yl-(2-chlorobenzyl)-amine]	82.2	78.4	4.33 ± 2.35	87.3 ± 3.68	53.4	46.4	73	72.2	86.9	71.5	75.5	76.2	91.2	50	56.9	91.9	87.8	86.4	78.4	71	% Inhibition at 10 µM (HCT-116 [2]): 63.49 ± 1.20%; IC50 (HCT-116 [2]): 7.13 ± 0.24 µM; inhibition at 10 µM (A549/ATCC): 80.8%; inhibition at 10 µM (MDA-MB-435): 72.8%; inhibition at 10 µM (MCF7): 100%; inhibition at 10 µM (HOP-62): 59.1%; inhibition at 10 µM (MOLT-4): 94.9%; inhibition at 10 µM (UO-31): 82.5%; inhibition at 10 µM (CAKI-1): 74.8%; inhibition at 10 µM (SK-MEL-28): 49.5%; inhibition at 10 µM (MDA-MB-468): 128%
Clc1cccc(CNc2c3ccccc3nc3ccccc23)c1 [Compound 12, Acridin-9-yl-(3-chlorobenzyl)-amine]	83.5	73	6.29 ± 1.18	62.2 ± 4.94	39.4	42.3	68.7	76.4	81.2	58.3	74.8	73.7	85.8	46.3	31.3	91.3	84.3	91	68	70.6	% Inhibition at 10 µM (HCT-116 [2]): 63.40 ± 7.54%; IC50 (HCT-116 [2]): 4.84 ± 0.05 µM; inhibition at 10 µM (A549/ATCC): 72.1%; inhibition at 10 µM (MDA-MB-435): 53.4%; inhibition at 10 µM (MCF7): 99.1%; inhibition at 10 µM (HOP-62): 54.5%; inhibition at 10 µM (MOLT-4): 98.9%; inhibition at 10 µM (UO-31): 84%; inhibition at 10 µM (CAKI-1): 71.8%; inhibition at 10 µM (SK-MEL-28): 33.8%; inhibition at 10 µM (MDA-MB-468): 118%
c1coc(CNc2c3ccccc3nc3ccccc23)c1 [Compound 14, Acridin-9-yl-furan-2-ylmethyl-amine]	38.1	38.4	7.43 ± 2.69	56.5 ± 7.38	14.3	3.11	35	46.5	43.1	52.7	34.3	55.2	43.5	16	18.5	76	73.8	6.96	36.4	39.5	% Inhibition at 10 µM (HCT-116 [2]): 58.83 ± 1.72%; IC50 (HCT-116 [2]): 8.41 ± 0.19 µM; inhibition at 10 µM (A549/ATCC): 38.1%; inhibition at 10 µM (MDA-MB-435): 12.4%; inhibition at 10 µM (MCF7): 78.7%; inhibition at 10 µM (HOP-62): 30.4%; inhibition at 10 µM (MOLT-4): 72.8%; inhibition at 10 µM (UO-31): 60.5%; inhibition at 10 µM (CAKI-1): 59%; inhibition at 10 µM (SK-MEL-28): 2.28%; inhibition at 10 µM (MDA-MB-468): 70.7%
COc1ccc(CNc2c3ccccc3nc3ccccc23)cc1F [Compound 19, Acridin-9-yl-(3-fluoro-4-methoxybenzyl)-amine]	84.2	76.2	3.39 ± 1.03	79.2 ± 8.48	50.9	47.8	68.3	74.1	73.8	63.8	74	79.2	93.7	54.5	57.5	87.7	89.1	87.1	73	70.8	inhibition at 10 µM (A549/ATCC): 77.2%; inhibition at 10 µM (MDA-MB-435): 92.4%; inhibition at 10 µM (MCF7): 97.7%; inhibition at 10 µM (HOP-62): 55.5%; inhibition at 10 µM (MOLT-4): 91.1%; inhibition at 10 µM (UO-31): 86.5%; inhibition at 10 µM (CAKI-1): 78.7%; inhibition at 10 µM (SK-MEL-28): 53.3%; inhibition at 10 µM (MDA-MB-468): 119%
COc1ccc(CNc2c3ccccc3nc3ccc(OC)cc23)cc1 [Compound 27, (2-Methoxyacridin-9-yl)-(4-methoxybenzyl)-amine]	88.8	87.9	1.87 ± 1.03	88.8 ± 4.84	59.8	59.6	76.5	79.2	81.6	73.8	85	83.8	93.5	74.1	72.6	87.3	89.8	121	78.6	76.4	inhibition at 10 µM (A549/ATCC): 85.4%; inhibition at 10 µM (MDA-MB-435): 81%; inhibition at 10 µM (MCF7): 130%; inhibition at 10 µM (HOP-62): 65.9%; inhibition at 10 µM (MOLT-4): 100%; inhibition at 10 µM (UO-31): 93.8%; inhibition at 10 µM (CAKI-1): 80.1%; inhibition at 10 µM (SK-MEL-28): 58.7%; inhibition at 10 µM (MDA-MB-468): 115%
